Tests used:
Assay type in all cases: in vivo
[1] = system: Blumeria graminis f. sp. tritici; assay: Test A: wheat powdery mildew, preventive spray on wheat seedlings, visual disease rating; settings: preventive spray at 40 ppm, rated 8 days after inoculation
How it was run: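 Wheat seedlings sprayed to run-off with 40 ppm compound (equivalent to 800 g/ha) in acetone/water with 250 ppm surfactant, then dusted with B. graminis spores next day. Held at 20° C. for 8 days before visual rating, 0–100 scale as % disease control relative to controls.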

Septoria tritici = assay: Test B: wheat leaf blotch, preventive spray on wheat seedlings, visual disease rating; settings: preventive spray at 40 ppm, rated after 48 h + 19 days
How it was run: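 Wheat seedlings were sprayed to run-off with 40 ppm compound (≈800 g/ha) in acetone/water with 250 ppm surfactant, then inoculated with Septoria tritici spores the next day. After 48 h saturated humidity at 20° C and 19 days in a growth chamber at 20° C, disease control was rated visually (0–100% vs controls).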

Botrytis cinerea = assay: Test C: tomato botrytis, preventive spray on tomato seedlings, visual disease rating; settings: preventive spray at 40 ppm, rated after 48 h + 3 days
How it was run: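 Compounds applied at 40 ppm (≈800 g/ha) in acetone/water with surfactant, sprayed to run-off on tomato seedlings. Inoculated next day with B. cinerea spores; 48 h saturated humidity at 20 °C, then 3 days at 27 °C. Visual rating as % disease control versus untreated controls.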

SMILES | Test A disease control rating (100 = 100% disease control, 0 = no disease control relative to the controls) [1] [%] | Test B disease control rating (100 = 100% disease control, 0 = no disease control relative to the controls) (Septoria tritici) [%] | Test C disease control rating (100 = 100% disease control, 0 = no disease control relative to the controls) (Botrytis cinerea) [%] | pest or weed control at 40 ppm ([1]; Blumeria graminis, 192 h, read-out: Test A disease control rating (100 = 100% disease control, 0 = no disease control relative to the controls)) [%] | pest or weed control at 40 ppm (Septoria tritici; Zymoseptoria tritici, 504 h, read-out: Test B disease control rating (100 = 100% disease control, 0 = no disease control relative to the controls)) [%] | pest or weed control at 40 ppm (Botrytis cinerea; Botrytis cinerea, 120 h, read-out: Test C disease control rating (100 = 100% disease control, 0 = no disease control relative to the controls)) [%]
CCOC(Oc1ccc2ccc(Br)cc2c1)C(=O)NC(C)(C)COC (stereo not drawn) [Compound 118] | 0 | 97 | 97 | – | – | –
CCOc1ccc2ccc(OC(OCC)C(=O)NC(C)(C)COC)cc2c1 (stereo not drawn) [Compound 120] | 90 | 99 | 98 | – | – | –
CCOc1ccc2ccc(OC(OCC)C(=O)NC(C)(C)C)cc2c1 (stereo not drawn) [Compound 121] | – | – | – | 29 | 100 | 99
C#CC(C)(C)NC(=O)C(OCC)Oc1ccc2ccc(OCC)cc2c1 (stereo not drawn) [Compound 122] | 0 | 100 | 98 | – | – | –
CCOc1ccc2ccc(OC(OCC)C(=O)NC(C)(C)C#N)cc2c1 (stereo not drawn) [Compound 123] | 82 | 100 | 98 | – | – | –
CCCOc1ccc2ccc(OC(OC)C(=O)NC(C)(C)COC)cc2c1 (stereo not drawn) [Compound 124] | 98 | 100 | 99 | – | – | –
CCCOc1ccc2ccc(OC(OC)C(=O)NC(C)(C)C)cc2c1 (stereo not drawn) [Compound 125] | 92 | 100 | 98 | – | – | –
C#CC(C)(C)NC(=O)C(OC)Oc1ccc2ccc(OCCC)cc2c1 (stereo not drawn) [Compound 126] | 72 | 99 | 99 | – | – | –
CCCOc1ccc2ccc(OC(CC)C(=O)NC(C)(C)COC)cc2c1 (stereo not drawn) [Compound 127] | 94 | 99 | 99 | – | – | –
CCCOc1ccc2ccc(OC(CC)C(=O)NC(C)(C)C)cc2c1 (stereo not drawn) [Compound 128] | 98 | 100 | 99 | – | – | –
C#CC(C)(C)NC(=O)C(CC)Oc1ccc2ccc(OCCC)cc2c1 (stereo not drawn) [Compound 129] | 96 | 99 | 99 | – | – | –
C#CCOc1ccc2ccc(OC(OC)C(=O)NC(C)(C)COC)cc2c1 (stereo not drawn) [Compound 130] | 21 | 98 | 100 | – | – | –
C#CCOc1ccc2ccc(OC(OC)C(=O)NC(C)(C)C)cc2c1 (stereo not drawn) [Compound 131] | 68 | 100 | 100 | – | – | –
C#CCOc1ccc2ccc(OC(OC)C(=O)NC(C)(C)C#C)cc2c1 (stereo not drawn) [Compound 132] | 13 | 99 | 100 | – | – | –
C#CCOc1ccc2ccc(OC(CC)C(=O)NC(C)(C)COC)cc2c1 (stereo not drawn) [Compound 133] | 74 | 99 | 100 | – | – | –
